We go through two substances from US6492137B1, “Response element compositions and assays employing same” (The Salk Institute for Biological Studies, priority 1989, dated 2002).

The target of one data set is T1, RARα (Homo sapiens, UniProt P10276).
T1 sequence (P10276 1-462): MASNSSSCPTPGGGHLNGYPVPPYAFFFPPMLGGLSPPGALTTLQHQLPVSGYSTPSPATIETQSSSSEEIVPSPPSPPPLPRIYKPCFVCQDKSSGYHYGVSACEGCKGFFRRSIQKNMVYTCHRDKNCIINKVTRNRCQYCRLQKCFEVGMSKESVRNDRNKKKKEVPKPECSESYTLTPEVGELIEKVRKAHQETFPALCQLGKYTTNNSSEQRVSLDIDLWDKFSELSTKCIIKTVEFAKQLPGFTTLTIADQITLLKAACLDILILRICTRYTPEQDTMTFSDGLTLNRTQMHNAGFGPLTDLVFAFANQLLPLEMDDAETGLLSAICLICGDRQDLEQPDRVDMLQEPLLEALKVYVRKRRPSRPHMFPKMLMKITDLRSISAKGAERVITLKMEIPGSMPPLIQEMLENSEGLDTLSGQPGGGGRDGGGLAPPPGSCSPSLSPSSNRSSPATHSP
Nature of the data set: Gel retardation DNA-binding assay with RARα-expressing COS cell extracts. The arrangement: expressed in transfected cells; host or cells: COS cells (whole-cell extract). The settings on record: unlabeled competitor oligonucleotide; COS cell extracts. As to the method:
For DNA binding assays, COS cells were cultured in DMEM with 10% calf bovine serum and transfected by the calcium phosphate method with 20 μg of the pCMX receptor expression plasmid for 6 hours followed by a glycerol shock. After incubating the transfected COS cells for another 48 hours, the cells were harvested to prepare extracts for the DNA binding assay, carried out as described by Damm et al., Nature 339: 593-597 (1989). The extracts were made in 20 mM HEPES (pH 7.4), 0.4 M KCl, 2 mM DTT and 20% glycerol. A similar method was employed to prepare a whole cell extract from F9 stem cells. For the binding, 5 μg (COS) or 10 μg (F9) of proteins was incubated on ice for 20 minutes, first in 20 mM HEPES, 80 mM KCl, 1 mM DTT, 0.1% NP40, 2.5 μg of poly dI/dC, and 10% glycerol (cold competitor oligonucleotides, when included, were added during this pre-incubation period). Then 40 fmole of ^32P-labeled oligonucleotide probe (1-2×10^5 cpm, prepared by filling-in reaction using Klenow polymerase in the presence of α-^32P-dCTP) was added to the reaction mixture, followed by incubation at room temperature for 30 minutes. The receptor-DNA complexes were resolved by electrophoresis through 5% polyacrylamide gel containing 5% glycerol at 6 V/cm at room temperature.
Oligonucleotides listed in FIG. 3 were used as a probe to test specific DNA-binding of the RARα and TRβ in a gel retardation assay. On the βRARE, a faint background binding activity was detected in the mock transfected COS cell extract. […] In each case the result obtained from in vivo transactivation and in vitro DNA binding are consistent.
Using the mobility shift assay, the DNA-binding capacity of extracts from COS cells expressing TRβ and RARα to these sequences was also tested. […] This pattern is consistent with that of the in vivo activation (FIG. 4). A reciprocal pattern was obtained when the same oligonucleotides were used to compete RARα binding to the ^32P-labeled βRARE. […] This provides a striking example of the role of half-site spacing in generating a functional response element.

Another data set addresses T2, TRβ (Homo sapiens, UniProt P10828).
T2 sequence (P10828 1-461): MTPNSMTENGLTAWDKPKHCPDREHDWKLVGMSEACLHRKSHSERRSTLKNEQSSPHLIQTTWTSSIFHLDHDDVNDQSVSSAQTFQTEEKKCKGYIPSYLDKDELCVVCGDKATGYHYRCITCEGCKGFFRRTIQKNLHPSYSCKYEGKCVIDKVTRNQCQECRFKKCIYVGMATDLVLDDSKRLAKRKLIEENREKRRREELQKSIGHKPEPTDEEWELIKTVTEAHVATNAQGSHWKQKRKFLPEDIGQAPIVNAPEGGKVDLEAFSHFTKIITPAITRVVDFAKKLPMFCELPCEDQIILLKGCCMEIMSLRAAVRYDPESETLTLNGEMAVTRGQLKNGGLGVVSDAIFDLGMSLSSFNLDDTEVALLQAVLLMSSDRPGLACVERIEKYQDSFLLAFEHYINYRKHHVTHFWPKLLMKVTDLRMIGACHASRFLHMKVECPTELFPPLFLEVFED
Nature of the data set: Gel retardation DNA-binding assay with TRβ-expressing COS cell extracts. Set-up: expressed in transfected cells; host or cells: COS cells (whole-cell extract). The settings on record: for TRβ binding to labeled oligonucleotide probe: gel retardation, TRβ COS cell extract; for competition for TRβ binding (mobility shift assay): unlabeled competitor oligonucleotide, COS cells expressing TRβ. Put shortly: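 Extracts of COS cells transfected with pCMX TRβ expression plasmid, 48 h post-transfection; 5 μg protein pre-incubated on ice 20 min with poly dI/dC, then 40 fmole 32P-labelled oligonucleotide 30 min at room temperature. Complexes resolved on 5% polyacrylamide gel.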

Data set [1] deals with F9 teratocarcinoma stem cells. Nature of the data set: CAT reporter transfection into RA responsive F9 teratocarcinoma stem cells. The data set is classed as cell-based, mouse. The settings on record: RA 1 μM, 24 hours; no transfected receptor. The protocol: For cotransfection assays, a monkey kidney cell line CV-1 was kept in Dulbecco's modified Eagle's medium (DMEM) supplemented with 10% charcoal-resin double split calf bovine serum. Transfections were performed via calcium-phosphate precipitation method as described by Umesono, et al. in Cell 57: 1139-1146 (1989), with 0.5 μg of a pRS receptor expression plasmid, 1.0 μg of a reporter CAT plasmid, 5 μg of pRAS-βGAL [Umesono, et al., Cell 57: 1139-1146 (1989)] as an internal control, and 8.5 μg of carrier plasmid pUC19. The cells were transfected for 8 hours; after washing the DNA precipitates, the cells were then incubated for an additional 36 hours with or without the ligand (T3, 100 nM; RA, 1 μM; 1,25-(OH)2 vitamin D3, 100 nM). Cell extracts were prepared for βGAL and CAT assays, as described by Umesono, et al., supra. Transfection of F9 teratocarcinoma cells was carried out employing a similar method except the cells were incubated for 12 hours in the presence of the DNA precipitates, and the RA was added at 1 μM for another 24 hours before harvesting the cells. 2, 5, and 4 μg of the reporter, pRAS-βGAL, and pUC19 were used, respectively.
Similarly, when the same set of reporters as in FIG. 4 were transfected into F9 cells, only MHC-R (5-nucleotide spacer) and TREp are potent RAREs. In contrast, its RARE antecedents (MHC-N, MHC+1, MHC-T) are inert.

As for “MHC-N: 23-nucleotide core of the wild-type sequence (MHC-TRE) (SEQ ID NO:14) (AGCTGGAGGTGACAGGAGGACAGCAAGCT; DNA, backbone not given here; further chemistry not fully specified)”, the “competition for RARα binding to 32P-labeled βRARE” value in the data set with RARα is “fails to compete at all”. The “competition for TRβ binding to 32P-labeled MHC-N” value with TRβ (50-fold excess of unlabeled oligonucleotide, COS cell extracts) is “competed”. Moreover, the “TRβ binding to labeled oligonucleotide probe” value in the data set with TRβ is recorded as “specific binding”; in the data set with TRβ (listed as MHC-TRE), “high affinity”. The “competition for TRβ binding (mobility shift assay)” value with TRβ is recorded as “efficient competition”. In addition, the “function as RARE in F9 cells” value in data set [1] is “inert”.

For the substance “TREp: optimized palindromic rat growth hormone TRE (SEQ ID NO:10) (AGCTTCAGGTCATGACCTGAGAGCT; DNA, backbone not given here; double-stranded response element with agct overhangs, cloned into reporter plasmid) [reference compound]”, the “competition for RARα binding to 32P-labeled βRARE” value with RARα is listed as “effective competitors”. In the data set with TRβ, the “competition for TRβ binding (mobility shift assay)” value is on record as “efficient competition”. The “function as RARE in F9 cells” value in data set [1] is on record as “potent RAREs”.
